Results reported in PubChem BioAssay (NCI).
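Method: 48-hour compound exposure of cells in 96-well plates, five concentrations, linear interpolation of endpoints. TGI is the concentration that stops growth completely.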

Tests used:
Test in all cases: NCI tumour cell line growth inhibition, 48 h
T-47D breast = test system: T-47D breast
NCI-H522 lung = test system: NCI-H522 lung
OVCAR-4 ovarian = test system: OVCAR-4 ovarian
HT29 colon = test system: HT29 colon
A549 NSCLC = test system: A549 NSCLC
SK-MEL-28 melanoma = test system: SK-MEL-28 melanoma
EKVX NSCLC = test system: EKVX NSCLC
CAKI-1 renal = test system: CAKI-1 renal
RXF 393 renal = test system: RXF 393 renal
IGROV1 ovarian = test system: IGROV1 ovarian
A498 renal = test system: A498 renal
CCRF-CEM leukemia = test system: CCRF-CEM leukemia
UACC-62 melanoma = test system: UACC-62 melanoma
DU-145 prostate = test system: DU-145 prostate
MALME-3M melanoma = test system: MALME-3M melanoma
NCI-H226 lung = test system: NCI-H226 lung
HCC-2998 colon = test system: HCC-2998 colon
OVCAR-5 ovarian = test system: OVCAR-5 ovarian
SK-MEL-2 melanoma = test system: SK-MEL-2 melanoma
ACHN renal = test system: ACHN renal
OVCAR-3 ovarian = test system: OVCAR-3 ovarian
SW-620 colon = test system: SW-620 colon
MDA-N = test system: MDA-N
SN12C renal = test system: SN12C renal
RPMI-8226 leukemia = test system: RPMI-8226 leukemia
SK-OV-3 ovarian = test system: SK-OV-3 ovarian
NCI-H460 lung = test system: NCI-H460 lung
SR leukemia = test system: SR leukemia
COLO 205 colon = test system: COLO 205 colon
HCT-116 colon = test system: HCT-116 colon
KM12 colon = test system: KM12 colon
M14 melanoma = test system: M14 melanoma
SF-295 CNS = test system: SF-295 CNS
UACC-257 melanoma = test system: UACC-257 melanoma
SF-539 CNS = test system: SF-539 CNS
786-0 renal = test system: 786-0 renal
OVCAR-8 ovarian = test system: OVCAR-8 ovarian
HOP-62 NSCLC = test system: HOP-62 NSCLC
LOX IMVI melanoma = test system: LOX IMVI melanoma
UO-31 renal = test system: UO-31 renal
MDA-MB-435 = test system: MDA-MB-435
SK-MEL-5 melanoma = test system: SK-MEL-5 melanoma
HL-60(TB) leukemia = test system: HL-60(TB) leukemia
SF-268 CNS = test system: SF-268 CNS
PC-3 prostate = test system: PC-3 prostate
SNB-75 CNS = test system: SNB-75 CNS
NCI-H23 lung = test system: NCI-H23 lung
HS 578T breast = test system: HS 578T breast
MOLT-4 leukemia = test system: MOLT-4 leukemia
MCF7 breast = test system: MCF7 breast
HCT-15 colon = test system: HCT-15 colon
TK-10 renal = test system: TK-10 renal
SNB-19 CNS = test system: SNB-19 CNS
U251 CNS = test system: U251 CNS
NCI/ADR-RES ovarian = test system: NCI/ADR-RES ovarian
K-562 leukemia = test system: K-562 leukemia
HOP-92 NSCLC = test system: HOP-92 NSCLC
MDA-MB-231 breast = test system: MDA-MB-231 breast
BT-549 breast = test system: BT-549 breast

Measured: TGI

CC#CC(O)(C(=O)OC1CCCN(C)C1)C1=CC=CCC1 (stereo not drawn)
not listed: BT-549 breast
> 100 µM: all other assays above

CCOC(=O)C(O)(NC(C)=O)C(F)(F)F (stereo not drawn)
not listed: A498 renal | NCI-H460 lung | 786-0 renal | MDA-MB-231 breast
> 100 µM: all other assays above
